# Source: patent EP0908457B1, “3-(1,2-benzisothiazol- and isoxazol-5-Y1)-2,4(1H,3H)-pyrimidinedione or thione and 3-(1,2-benzisothiazol- and isoxazol-5-y1)-4(3H)-pyrimidinone or thione herbicidal agents” (BASF AKTIENGESELLSCHAFT, priority 1997, dated 1999)
# How the values were obtained:
# [1] = test system: Echinochloa oryzoides (Ard.) Fritsch.; test: Preemergence weed control under flooded paddy conditions, ECHORC (Watergrass (Calif.)); format: in vivo; details: preemergence, flooded paddy, rated three to four weeks after treatment; note: meaning of each grade not given here
# Cyperus iria [2] = test: Preemergence weed control under flooded paddy conditions, CYPIR (Rice Flatsedge); format: in vivo; details: preemergence, flooded paddy, rated three to four weeks after treatment; note: meaning of each grade not given here
# [3] = test system: Cyperus serotinus, Rottb.; test: Preemergence weed control under flooded paddy conditions, CYPSE (Flatsedge); format: in vivo; details: preemergence, rated three to four weeks after treatment; note: meaning of each grade not given here
# [4] = test system: Monochoria vaginalis, Presl.; test: Preemergence weed control under flooded paddy conditions, MOOVA (Monochoria); format: in vivo; details: preemergence, flooded paddy, rated three to four weeks after treatment; note: meaning of each grade not given here
# Sagittaria pygmaea, L. [5] = test: Preemergence weed control under flooded paddy conditions, SAGPY (Arrowhead (Pygmaea)); format: in vivo; details: preemergence, flooded paddy, rated three to four weeks after treatment; note: meaning of each grade not given here
# [6] = test system: Echinochloa oryzoides (Ard.) Fritsch.; test: Postemergence weed control under flooded paddy conditions, ECHORC (Watergrass (Calif.)); format: in vivo; details: rated three to four weeks after treatment
# Cyperus iria [7] = test: Postemergence weed control under flooded paddy conditions, CYPIR (Rice Flatsedge); format: in vivo; details: rated three to four weeks after treatment
# [8] = test system: Cyperus serotinus, Rottb.; test: Postemergence weed control under flooded paddy conditions, CYPSE (Flatsedge); format: in vivo; details: rated three to four weeks after treatment
# [9] = test system: Monochoria vaginalis, Presl.; test: Postemergence weed control under flooded paddy conditions, MOOVA (Monochoria); format: in vivo; details: rated three to four weeks after treatment
# Sagittaria pygmaea, L. [10] = test: Postemergence weed control under flooded paddy conditions, SAGPY (Arrowhead (Pygmaea)); format: in vivo; details: rated three to four weeks after treatment
# [11] = test system: Oryza sativa, (L.) Tebonnet; test: Rice tolerance to post-transplant applications under flooded paddy conditions (Example 187), ORYSAT (Rice, Tebonnet); details: rated three to four weeks after treatment
# [12] = test system: Oryza sativa, (L.) Tebonnet; test: Rice tolerance to post-transplant applications under flooded paddy conditions (Example 188), ORYSAT (Rice, Tebonnet); details: rated three to four weeks after treatment
structure (smiles),measurement,setting,value
"Cc1nsc2ccc(-n3c(=O)cc(C(F)(F)F)n(C)c3=O)cc12 [Example 6, 1-Methyl-3-(3-methyl-1,2-benzisothiazol-5-yl)-6-(trifluoromethyl)-2,4(1H,3H)-pyrimidinedione]","herbicidal effect rating, ECHORC",[1]; 0.0625 kg/ha,6.0
same,"herbicidal effect rating, ECHORC",[1]; 0.1250 kg/ha,8.0
same,"herbicidal effect rating, ECHORC",[1]; 0.2500 kg/ha,9.0
same,"herbicidal effect rating, ECHORC",[1]; 0.5000 kg/ha,9.0
same,"herbicidal effect rating, CYPIR",Cyperus iria [2]; 0.0625 kg/ha,9.0
same,"herbicidal effect rating, CYPIR",Cyperus iria [2]; 0.1250 kg/ha,9.0
same,"herbicidal effect rating, CYPIR",Cyperus iria [2]; 0.2500 kg/ha,9.0
same,"herbicidal effect rating, CYPIR",Cyperus iria [2]; 0.5000 kg/ha,9.0
same,"herbicidal effect rating, CYPSE",[3]; 0.0625 kg/ha,4.0
same,"herbicidal effect rating, CYPSE",[3]; 0.1250 kg/ha,7.0
same,"herbicidal effect rating, CYPSE",[3]; 0.2500 kg/ha,9.0
same,"herbicidal effect rating, CYPSE",[3]; 0.5000 kg/ha,9.0
same,"herbicidal effect rating, MOOVA",[4]; 0.0625 kg/ha,9.0
same,"herbicidal effect rating, MOOVA",[4]; 0.1250 kg/ha,9.0
same,"herbicidal effect rating, MOOVA",[4]; 0.2500 kg/ha,9.0
same,"herbicidal effect rating, MOOVA",[4]; 0.5000 kg/ha,9.0
same,"herbicidal effect rating, SAGPY","Sagittaria pygmaea, L. [5]; 0.0625 kg/ha",4.0
same,"herbicidal effect rating, SAGPY","Sagittaria pygmaea, L. [5]; 0.1250 kg/ha",7.0
same,"herbicidal effect rating, SAGPY","Sagittaria pygmaea, L. [5]; 0.2500 kg/ha",7.0
same,"herbicidal effect rating, SAGPY","Sagittaria pygmaea, L. [5]; 0.5000 kg/ha",9.0
same,"herbicidal effect rating, ECHORC",[6]; Rate 0.0313 kg/ha,4.0
same,"herbicidal effect rating, ECHORC",[6]; Rate 0.0625 kg/ha,7.0
same,"herbicidal effect rating, ECHORC",[6]; Rate 0.1250 kg/ha,9.0
same,"herbicidal effect rating, ECHORC",[6]; Rate 0.2500 kg/ha,9.0
same,"herbicidal effect rating, ECHORC",[6]; Rate 0.5000 kg/ha,9.0
same,"herbicidal effect rating, CYPIR",Cyperus iria [7]; Rate 0.0313 kg/ha,9.0
same,"herbicidal effect rating, CYPIR",Cyperus iria [7]; Rate 0.0625 kg/ha,9.0
same,"herbicidal effect rating, CYPIR",Cyperus iria [7]; Rate 0.1250 kg/ha,9.0
same,"herbicidal effect rating, CYPIR",Cyperus iria [7]; Rate 0.2500 kg/ha,9.0
same,"herbicidal effect rating, CYPIR",Cyperus iria [7]; Rate 0.5000 kg/ha,9.0
same,"herbicidal effect rating, CYPSE",[8]; Rate 0.0313 kg/ha,0.0
same,"herbicidal effect rating, CYPSE",[8]; Rate 0.0625 kg/ha,2.0
same,"herbicidal effect rating, CYPSE",[8]; Rate 0.1250 kg/ha,7.0
same,"herbicidal effect rating, CYPSE",[8]; Rate 0.2500 kg/ha,7.0
same,"herbicidal effect rating, CYPSE",[8]; Rate 0.5000 kg/ha,9.0
same,"herbicidal effect rating, MOOVA",[9]; Rate 0.0313 kg/ha,9.0
same,"herbicidal effect rating, MOOVA",[9]; Rate 0.0625 kg/ha,9.0
same,"herbicidal effect rating, MOOVA",[9]; Rate 0.1250 kg/ha,9.0
same,"herbicidal effect rating, MOOVA",[9]; Rate 0.2500 kg/ha,9.0
same,"herbicidal effect rating, MOOVA",[9]; Rate 0.5000 kg/ha,9.0
same,"herbicidal effect rating, SAGPY","Sagittaria pygmaea, L. [10]; Rate 0.0313 kg/ha",2.0
same,"herbicidal effect rating, SAGPY","Sagittaria pygmaea, L. [10]; Rate 0.0625 kg/ha",4.0
same,"herbicidal effect rating, SAGPY","Sagittaria pygmaea, L. [10]; Rate 0.1250 kg/ha",6.0
same,"herbicidal effect rating, SAGPY","Sagittaria pygmaea, L. [10]; Rate 0.2500 kg/ha",8.0
same,"herbicidal effect rating, SAGPY","Sagittaria pygmaea, L. [10]; Rate 0.5000 kg/ha",9.0
same,"herbicidal effect rating, ORYSAT (rice tolerance)",[11]; 0.0625 kg/ha,8.0
same,"herbicidal effect rating, ORYSAT (rice tolerance)",[11]; 0.1250 kg/ha,8.0
same,"herbicidal effect rating, ORYSAT (rice tolerance)",[11]; 0.2500 kg/ha,8.0
same,"herbicidal effect rating, ORYSAT (rice tolerance)",[11]; 0.5000 kg/ha,8.0
same,"herbicidal effect rating, ORYSAT (rice tolerance)",[12]; Rate 0.0313 kg/ha,4.0
same,"herbicidal effect rating, ORYSAT (rice tolerance)",[12]; Rate 0.0625 kg/ha,4.0
same,"herbicidal effect rating, ORYSAT (rice tolerance)",[12]; Rate 0.1250 kg/ha,9.0
same,"herbicidal effect rating, ORYSAT (rice tolerance)",[12]; Rate 0.2500 kg/ha,9.0
same,"herbicidal effect rating, ORYSAT (rice tolerance)",[12]; Rate 0.5000 kg/ha,9.0
"COc1cc(C)ccc1-c1nsc2ccc(-n3c(=O)cc(C(F)(F)F)n(C)c3=O)cc12 [Example 7, 3-[3-(2-Methoxy-p-tolyl)-1,2-benzisothiazol-5-yl]-1-methyl-6-(trifluoromethyl)-2,4(1H,3H)-pyrimidinedione]","herbicidal effect rating, ECHORC",[1]; 0.0313 kg/ha,9.0
same,"herbicidal effect rating, ECHORC",[1]; 0.0625 kg/ha,9.0
same,"herbicidal effect rating, ECHORC",[1]; 0.1250 kg/ha,9.0
same,"herbicidal effect rating, ECHORC",[1]; 0.2500 kg/ha,9.0
same,"herbicidal effect rating, ECHORC",[1]; 0.5000 kg/ha,9.0
same,"herbicidal effect rating, CYPIR",Cyperus iria [2]; 0.0313 kg/ha,9.0
same,"herbicidal effect rating, CYPIR",Cyperus iria [2]; 0.0625 kg/ha,9.0
same,"herbicidal effect rating, CYPIR",Cyperus iria [2]; 0.1250 kg/ha,9.0
same,"herbicidal effect rating, CYPIR",Cyperus iria [2]; 0.2500 kg/ha,9.0
same,"herbicidal effect rating, CYPIR",Cyperus iria [2]; 0.5000 kg/ha,9.0
same,"herbicidal effect rating, CYPSE",[3]; 0.0313 kg/ha,7.0
same,"herbicidal effect rating, CYPSE",[3]; 0.0625 kg/ha,7.0
same,"herbicidal effect rating, CYPSE",[3]; 0.1250 kg/ha,8.0
same,"herbicidal effect rating, CYPSE",[3]; 0.2500 kg/ha,7.0
same,"herbicidal effect rating, CYPSE",[3]; 0.5000 kg/ha,9.0
same,"herbicidal effect rating, MOOVA",[4]; 0.0313 kg/ha,9.0
same,"herbicidal effect rating, MOOVA",[4]; 0.0625 kg/ha,9.0
same,"herbicidal effect rating, MOOVA",[4]; 0.1250 kg/ha,9.0
same,"herbicidal effect rating, MOOVA",[4]; 0.2500 kg/ha,9.0
same,"herbicidal effect rating, MOOVA",[4]; 0.5000 kg/ha,9.0
same,"herbicidal effect rating, SAGPY","Sagittaria pygmaea, L. [5]; 0.0313 kg/ha",6.0
same,"herbicidal effect rating, SAGPY","Sagittaria pygmaea, L. [5]; 0.0625 kg/ha",8.0
same,"herbicidal effect rating, SAGPY","Sagittaria pygmaea, L. [5]; 0.1250 kg/ha",9.0
same,"herbicidal effect rating, SAGPY","Sagittaria pygmaea, L. [5]; 0.2500 kg/ha",9.0
same,"herbicidal effect rating, SAGPY","Sagittaria pygmaea, L. [5]; 0.5000 kg/ha",9.0
same,"herbicidal effect rating, ECHORC",[6]; Rate 0.0313 kg/ha,9.0
same,"herbicidal effect rating, ECHORC",[6]; Rate 0.0625 kg/ha,9.0
same,"herbicidal effect rating, ECHORC",[6]; Rate 0.1250 kg/ha,9.0
same,"herbicidal effect rating, ECHORC",[6]; Rate 0.2500 kg/ha,9.0
same,"herbicidal effect rating, ECHORC",[6]; Rate 0.5000 kg/ha,9.0
same,"herbicidal effect rating, CYPIR",Cyperus iria [7]; Rate 0.0313 kg/ha,9.0
same,"herbicidal effect rating, CYPIR",Cyperus iria [7]; Rate 0.0625 kg/ha,9.0
same,"herbicidal effect rating, CYPIR",Cyperus iria [7]; Rate 0.1250 kg/ha,9.0
same,"herbicidal effect rating, CYPIR",Cyperus iria [7]; Rate 0.2500 kg/ha,9.0
same,"herbicidal effect rating, CYPIR",Cyperus iria [7]; Rate 0.5000 kg/ha,9.0
same,"herbicidal effect rating, CYPSE",[8]; Rate 0.0313 kg/ha,2.0
same,"herbicidal effect rating, CYPSE",[8]; Rate 0.0625 kg/ha,6.0
same,"herbicidal effect rating, CYPSE",[8]; Rate 0.1250 kg/ha,9.0
same,"herbicidal effect rating, CYPSE",[8]; Rate 0.2500 kg/ha,9.0
same,"herbicidal effect rating, CYPSE",[8]; Rate 0.5000 kg/ha,8.0
same,"herbicidal effect rating, MOOVA",[9]; Rate 0.0313 kg/ha,9.0
same,"herbicidal effect rating, MOOVA",[9]; Rate 0.0625 kg/ha,9.0
same,"herbicidal effect rating, MOOVA",[9]; Rate 0.1250 kg/ha,9.0
same,"herbicidal effect rating, MOOVA",[9]; Rate 0.2500 kg/ha,9.0
same,"herbicidal effect rating, MOOVA",[9]; Rate 0.5000 kg/ha,9.0
same,"herbicidal effect rating, SAGPY","Sagittaria pygmaea, L. [10]; Rate 0.0313 kg/ha",0.0
same,"herbicidal effect rating, SAGPY","Sagittaria pygmaea, L. [10]; Rate 0.0625 kg/ha",2.0
same,"herbicidal effect rating, SAGPY","Sagittaria pygmaea, L. [10]; Rate 0.1250 kg/ha",4.0
same,"herbicidal effect rating, SAGPY","Sagittaria pygmaea, L. [10]; Rate 0.2500 kg/ha",9.0
same,"herbicidal effect rating, SAGPY","Sagittaria pygmaea, L. [10]; Rate 0.5000 kg/ha",9.0
same,"herbicidal effect rating, ORYSAT (rice tolerance)",[11]; 0.0313 kg/ha,6.0
same,"herbicidal effect rating, ORYSAT (rice tolerance)",[11]; 0.0625 kg/ha,8.0
same,"herbicidal effect rating, ORYSAT (rice tolerance)",[11]; 0.1250 kg/ha,7.0
same,"herbicidal effect rating, ORYSAT (rice tolerance)",[11]; 0.2500 kg/ha,7.0
same,"herbicidal effect rating, ORYSAT (rice tolerance)",[11]; 0.5000 kg/ha,9.0
same,"herbicidal effect rating, ORYSAT (rice tolerance)",[12]; Rate 0.0313 kg/ha,7.0
same,"herbicidal effect rating, ORYSAT (rice tolerance)",[12]; Rate 0.0625 kg/ha,7.0
same,"herbicidal effect rating, ORYSAT (rice tolerance)",[12]; Rate 0.1250 kg/ha,7.0
same,"herbicidal effect rating, ORYSAT (rice tolerance)",[12]; Rate 0.2500 kg/ha,7.0
same,"herbicidal effect rating, ORYSAT (rice tolerance)",[12]; Rate 0.5000 kg/ha,8.0
